Here are results for three compounds from ChEMBL document CHEMBL3627608, “Crystal structures of human RIP2 kinase catalytic domain complexed with ATP-competitive inhibitors: Foundations for understanding inhibitor selectivity” (Bioorg Med Chem, 2015).

The target in experiment [1] is CDK9/cyclin T1 (Homo sapiens) (UniProt O60563+P50750). Description: Inhibition of CDK9/cyclin T1 (unknown origin) at 10 uM after 120 mins P33 radiolabeled kinase activity assay. Format: protein-complex assay.
Experiment [2] has as its target Tyrosine-protein kinase Fes/Fps (Homo sapiens) (UniProt P07332). Put plainly: Inhibition of FES (unknown origin) at 10 uM after 120 mins P33 radiolabeled kinase activity assay.
The target of experiment [3] is Serine/threonine-protein kinase SIK2 (Homo sapiens) (UniProt Q9H0K1). Description: Inhibition of SIK2 (unknown origin) at 10 uM after 120 mins P33 radiolabeled kinase activity assay.
Chain of Serine/threonine-protein kinase SIK2 (Homo sapiens) (Q9H0K1 whole entry, looked up): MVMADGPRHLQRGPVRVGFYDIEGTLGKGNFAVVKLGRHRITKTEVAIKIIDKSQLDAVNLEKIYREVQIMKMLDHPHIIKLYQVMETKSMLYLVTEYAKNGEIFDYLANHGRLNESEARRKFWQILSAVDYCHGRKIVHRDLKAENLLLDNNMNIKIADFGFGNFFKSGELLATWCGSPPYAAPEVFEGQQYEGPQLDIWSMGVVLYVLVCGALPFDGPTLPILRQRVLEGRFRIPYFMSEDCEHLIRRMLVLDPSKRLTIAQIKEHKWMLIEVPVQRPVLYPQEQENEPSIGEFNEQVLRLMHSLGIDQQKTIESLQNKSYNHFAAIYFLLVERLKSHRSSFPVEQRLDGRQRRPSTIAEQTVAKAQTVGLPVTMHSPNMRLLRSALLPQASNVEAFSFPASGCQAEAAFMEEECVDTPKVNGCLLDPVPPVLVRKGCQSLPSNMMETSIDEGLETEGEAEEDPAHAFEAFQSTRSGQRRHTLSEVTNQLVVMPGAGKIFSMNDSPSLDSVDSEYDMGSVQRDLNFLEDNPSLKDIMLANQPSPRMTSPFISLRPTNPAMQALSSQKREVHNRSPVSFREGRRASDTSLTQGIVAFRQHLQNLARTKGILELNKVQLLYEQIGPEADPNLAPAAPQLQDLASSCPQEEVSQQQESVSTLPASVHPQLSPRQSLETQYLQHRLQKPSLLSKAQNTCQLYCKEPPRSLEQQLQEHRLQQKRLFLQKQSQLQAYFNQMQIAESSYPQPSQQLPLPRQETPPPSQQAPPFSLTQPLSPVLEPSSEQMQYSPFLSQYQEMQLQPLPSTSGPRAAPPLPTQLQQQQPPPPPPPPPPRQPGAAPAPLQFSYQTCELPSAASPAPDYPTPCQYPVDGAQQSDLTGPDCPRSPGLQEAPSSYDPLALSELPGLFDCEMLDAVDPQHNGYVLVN
The target of experiment [4] is T1, Dual specificity tyrosine-phosphorylation-regulated kinase 3 (Homo sapiens) (UniProt O43781).
T1 sequence (whole entry): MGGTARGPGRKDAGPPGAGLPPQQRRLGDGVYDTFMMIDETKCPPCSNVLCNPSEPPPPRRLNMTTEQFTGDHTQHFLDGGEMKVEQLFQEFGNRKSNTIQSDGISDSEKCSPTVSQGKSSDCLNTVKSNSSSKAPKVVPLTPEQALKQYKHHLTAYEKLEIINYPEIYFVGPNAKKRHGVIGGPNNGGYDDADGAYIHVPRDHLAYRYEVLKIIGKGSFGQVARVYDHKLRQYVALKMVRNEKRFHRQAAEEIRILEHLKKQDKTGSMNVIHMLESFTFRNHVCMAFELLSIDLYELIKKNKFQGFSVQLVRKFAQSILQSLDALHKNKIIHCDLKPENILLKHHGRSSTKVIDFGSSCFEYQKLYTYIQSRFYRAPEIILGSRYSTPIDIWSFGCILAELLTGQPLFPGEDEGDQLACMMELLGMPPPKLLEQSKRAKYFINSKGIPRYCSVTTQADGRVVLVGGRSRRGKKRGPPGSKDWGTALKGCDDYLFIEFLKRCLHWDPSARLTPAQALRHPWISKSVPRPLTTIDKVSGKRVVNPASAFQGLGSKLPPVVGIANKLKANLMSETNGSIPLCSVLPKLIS
Put plainly: Inhibition of DYRK3 (unknown origin) at 10 uM after 120 mins P33 radiolabeled kinase activity assay.

The target of experiment [5] is Calcium/calmodulin-dependent protein kinase type 1G (Homo sapiens) (UniProt Q96NX5). Put plainly: Inhibition of CAMK1gamma (unknown origin) at 10 uM after 120 mins P33 radiolabeled kinase activity assay.
Chain of Calcium/calmodulin-dependent protein kinase type 1G (Homo sapiens) (Q96NX5 whole entry): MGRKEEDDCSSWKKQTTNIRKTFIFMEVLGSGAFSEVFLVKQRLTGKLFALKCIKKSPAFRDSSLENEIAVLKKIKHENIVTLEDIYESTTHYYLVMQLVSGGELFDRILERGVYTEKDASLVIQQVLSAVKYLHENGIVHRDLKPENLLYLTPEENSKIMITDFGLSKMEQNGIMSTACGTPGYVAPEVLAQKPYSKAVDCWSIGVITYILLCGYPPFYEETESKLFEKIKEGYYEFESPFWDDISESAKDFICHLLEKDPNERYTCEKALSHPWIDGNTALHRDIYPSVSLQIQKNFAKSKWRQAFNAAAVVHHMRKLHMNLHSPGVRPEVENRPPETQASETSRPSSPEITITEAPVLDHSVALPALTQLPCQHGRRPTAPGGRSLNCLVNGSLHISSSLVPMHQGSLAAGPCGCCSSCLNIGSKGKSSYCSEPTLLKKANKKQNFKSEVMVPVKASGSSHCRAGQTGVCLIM
For experiment [6], the target named is Calcium/calmodulin-dependent protein kinase type II subunit gamma (Homo sapiens) (UniProt Q13555). Put plainly: Inhibition of CAMK2gamma (unknown origin) at 10 uM after 120 mins P33 radiolabeled kinase activity assay.
Chain of Calcium/calmodulin-dependent protein kinase type II subunit gamma (Homo sapiens) (Q13555 whole entry): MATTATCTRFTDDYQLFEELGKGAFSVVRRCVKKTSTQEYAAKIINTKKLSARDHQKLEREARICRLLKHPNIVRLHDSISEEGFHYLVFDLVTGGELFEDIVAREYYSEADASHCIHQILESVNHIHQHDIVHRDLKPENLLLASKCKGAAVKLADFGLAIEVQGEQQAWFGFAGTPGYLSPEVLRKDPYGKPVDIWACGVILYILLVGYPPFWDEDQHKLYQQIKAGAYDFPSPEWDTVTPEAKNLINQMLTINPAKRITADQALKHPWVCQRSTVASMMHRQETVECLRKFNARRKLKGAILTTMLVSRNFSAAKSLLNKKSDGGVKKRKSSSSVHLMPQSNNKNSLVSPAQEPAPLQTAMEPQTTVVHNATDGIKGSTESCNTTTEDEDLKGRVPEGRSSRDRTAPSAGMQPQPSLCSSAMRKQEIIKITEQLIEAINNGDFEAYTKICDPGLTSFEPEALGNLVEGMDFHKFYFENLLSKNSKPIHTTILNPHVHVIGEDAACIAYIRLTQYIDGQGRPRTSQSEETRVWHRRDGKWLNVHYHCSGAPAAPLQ
In experiment [7] the target is Receptor-interacting serine/threonine-protein kinase 2 (Homo sapiens, UniProt O43353). Put plainly: Inhibition of full-length FLAG-6His-TEV tagged human RIP2 expressed in Sf9 cells assessed as residence time by fluorescent polarization assay.
Chain of Receptor-interacting serine/threonine-protein kinase 2 (O43353 whole entry): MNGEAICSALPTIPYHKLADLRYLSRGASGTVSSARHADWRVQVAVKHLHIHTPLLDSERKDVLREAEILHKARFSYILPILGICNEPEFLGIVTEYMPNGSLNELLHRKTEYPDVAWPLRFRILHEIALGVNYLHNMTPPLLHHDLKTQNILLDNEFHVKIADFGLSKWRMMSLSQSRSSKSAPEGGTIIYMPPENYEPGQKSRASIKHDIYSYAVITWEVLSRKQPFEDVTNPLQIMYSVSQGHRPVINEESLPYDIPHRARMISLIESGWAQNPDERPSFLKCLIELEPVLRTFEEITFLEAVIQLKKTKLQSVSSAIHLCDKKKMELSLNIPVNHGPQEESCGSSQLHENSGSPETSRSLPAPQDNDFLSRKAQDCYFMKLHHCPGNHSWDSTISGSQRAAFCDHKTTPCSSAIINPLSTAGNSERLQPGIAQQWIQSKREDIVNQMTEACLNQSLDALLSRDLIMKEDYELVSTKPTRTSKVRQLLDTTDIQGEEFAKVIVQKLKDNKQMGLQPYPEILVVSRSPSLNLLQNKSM
Experiment [8] deals with T2, Homeodomain-interacting protein kinase 4 (Homo sapiens) (UniProt Q8NE63).
T2 sequence (whole entry): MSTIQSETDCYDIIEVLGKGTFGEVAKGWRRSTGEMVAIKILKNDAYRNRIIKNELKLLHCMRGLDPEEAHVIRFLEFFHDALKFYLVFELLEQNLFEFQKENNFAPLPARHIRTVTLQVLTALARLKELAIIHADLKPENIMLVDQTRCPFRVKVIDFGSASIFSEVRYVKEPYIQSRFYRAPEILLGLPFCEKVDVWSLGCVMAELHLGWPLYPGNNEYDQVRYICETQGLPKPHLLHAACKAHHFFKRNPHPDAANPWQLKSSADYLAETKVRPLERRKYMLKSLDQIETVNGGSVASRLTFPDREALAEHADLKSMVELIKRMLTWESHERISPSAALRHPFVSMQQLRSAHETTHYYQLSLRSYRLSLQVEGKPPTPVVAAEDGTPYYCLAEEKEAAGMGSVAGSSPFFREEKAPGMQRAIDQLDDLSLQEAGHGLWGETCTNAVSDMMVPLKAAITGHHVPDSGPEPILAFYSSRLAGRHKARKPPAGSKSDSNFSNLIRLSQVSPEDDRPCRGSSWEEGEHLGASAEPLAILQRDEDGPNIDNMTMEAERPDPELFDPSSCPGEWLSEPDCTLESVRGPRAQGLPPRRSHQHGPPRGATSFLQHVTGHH
Description: Inhibition of HIPK4 (unknown origin) at 10 uM after 120 mins P33 radiolabeled kinase activity assay.

In experiment [9] the target is T3, Tyrosine-protein kinase Mer (Homo sapiens) (UniProt Q12866).
T3 sequence (whole entry): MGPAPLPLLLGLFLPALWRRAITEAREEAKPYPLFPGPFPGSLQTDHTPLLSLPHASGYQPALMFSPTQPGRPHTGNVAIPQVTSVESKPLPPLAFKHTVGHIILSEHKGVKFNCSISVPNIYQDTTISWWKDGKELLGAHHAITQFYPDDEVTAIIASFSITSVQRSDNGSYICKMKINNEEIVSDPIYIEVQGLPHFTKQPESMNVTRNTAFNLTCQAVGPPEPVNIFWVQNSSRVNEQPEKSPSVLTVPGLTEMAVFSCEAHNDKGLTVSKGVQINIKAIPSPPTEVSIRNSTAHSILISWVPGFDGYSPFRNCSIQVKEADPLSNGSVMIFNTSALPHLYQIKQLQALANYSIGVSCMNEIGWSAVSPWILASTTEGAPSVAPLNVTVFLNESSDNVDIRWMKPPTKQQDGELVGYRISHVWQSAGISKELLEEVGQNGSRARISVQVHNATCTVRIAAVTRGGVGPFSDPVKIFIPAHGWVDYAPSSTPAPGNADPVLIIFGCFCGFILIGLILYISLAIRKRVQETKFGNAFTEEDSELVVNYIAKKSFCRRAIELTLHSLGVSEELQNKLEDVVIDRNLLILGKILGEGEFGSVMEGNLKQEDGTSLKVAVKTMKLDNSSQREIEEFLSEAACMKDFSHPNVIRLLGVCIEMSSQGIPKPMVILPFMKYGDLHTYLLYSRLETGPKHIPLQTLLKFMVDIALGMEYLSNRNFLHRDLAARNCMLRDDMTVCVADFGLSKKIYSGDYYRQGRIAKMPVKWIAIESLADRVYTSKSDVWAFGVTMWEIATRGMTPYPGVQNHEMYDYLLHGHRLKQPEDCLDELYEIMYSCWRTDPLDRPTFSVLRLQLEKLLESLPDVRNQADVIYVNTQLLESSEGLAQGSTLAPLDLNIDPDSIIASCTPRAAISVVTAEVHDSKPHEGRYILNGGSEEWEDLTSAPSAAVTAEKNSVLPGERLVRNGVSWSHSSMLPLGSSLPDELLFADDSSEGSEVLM
Description: Inhibition of c-MER (unknown origin) at 10 uM after 120 mins P33 radiolabeled kinase activity assay.

Chain of Tyrosine-protein kinase Fes/Fps (Homo sapiens) (P07332 whole entry): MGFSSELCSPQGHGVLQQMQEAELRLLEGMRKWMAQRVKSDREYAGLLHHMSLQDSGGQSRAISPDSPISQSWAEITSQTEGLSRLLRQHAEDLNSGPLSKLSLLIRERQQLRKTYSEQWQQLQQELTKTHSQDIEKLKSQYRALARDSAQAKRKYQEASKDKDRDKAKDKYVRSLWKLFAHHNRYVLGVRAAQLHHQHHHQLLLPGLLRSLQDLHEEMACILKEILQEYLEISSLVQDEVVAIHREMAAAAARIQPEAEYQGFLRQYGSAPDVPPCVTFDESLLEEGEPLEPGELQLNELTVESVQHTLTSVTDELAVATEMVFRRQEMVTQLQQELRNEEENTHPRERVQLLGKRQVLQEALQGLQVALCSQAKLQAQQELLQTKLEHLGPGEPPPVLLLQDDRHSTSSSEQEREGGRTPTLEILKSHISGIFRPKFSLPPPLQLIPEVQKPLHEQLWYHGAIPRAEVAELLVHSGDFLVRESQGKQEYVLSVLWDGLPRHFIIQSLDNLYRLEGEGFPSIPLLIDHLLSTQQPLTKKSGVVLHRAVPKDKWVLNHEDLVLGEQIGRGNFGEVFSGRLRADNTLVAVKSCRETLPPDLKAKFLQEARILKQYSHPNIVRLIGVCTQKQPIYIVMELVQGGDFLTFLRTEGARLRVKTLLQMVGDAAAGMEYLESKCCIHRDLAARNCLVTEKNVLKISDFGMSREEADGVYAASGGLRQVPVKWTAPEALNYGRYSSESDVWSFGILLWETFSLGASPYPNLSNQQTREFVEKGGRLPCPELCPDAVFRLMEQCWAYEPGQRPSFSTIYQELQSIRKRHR

With `COCCNC(=O)c1ccc2c(c1)nc(-c1cnc(-c3ccc(Cl)cc3)[nH]1)n2CCOC`, the inhibition (as a rule, the change of the read-out against control, counted positive when it falls) in experiment [1] came out at 5.79%; in experiment [2], 16.4%; in [3], 17%; in experiment [4] it was 8.42%; in experiment [5], 8.82%; in experiment [6] it was 9.22%. For the same compound, the inhibition in experiment [8] is -9.28%; in [9] it was 30.8%. Besides, the T1/2 in experiment [7] worked out at 0.00167 h.

Turning to `CC(C)(C)c1cc(NC(=O)Nc2ccc(Oc3ccncc3)cc2)no1`, the inhibition in experiment [1] was found to be 78.7%; in experiment [2], 33.8%; in experiment [3], 19.2%; in [4], 71.4%; in experiment [5], 20.9%; in experiment [6], 3.21%. For the same compound, the inhibition in experiment [8] was found to be 96.7%; in [9], 77.9%. In experiment [7], the T1/2 turned out to be 1.42 h.

For the compound `CS(=O)(=O)c1cccc(Nc2nccc(-c3sc(N4CCOCC4)nc3-c3cccc(NS(=O)(=O)c4c(F)cccc4F)c3)n2)c1`, the inhibition came to 25.4% in experiment [1]; 42.4% in experiment [2]; 97.2% in experiment [3]; 10.3% in experiment [4]; 66.6% in [5]; 7.84% in [6]. Further, the inhibition in [8] is 97%; in [9] it was 98.2%. Also, the T1/2 in experiment [7] was found to be 1.32 h.
